The NIST ThermoML archive (doi:10.1021/je050183a)
± gives the expanded uncertainty stated by the source.

Tests used:
[1] = xn = mol fraction of the nth substance listed; conditions: 101 kPa, Liquid; for viscosity: Capillary tube (Ostwald / Ubbelohde) method; for speed of sound: Linear variable-path acoustic interferometer; for mass density: Pycnometric method
[2] = refractive index (Na D-line) (dimensionless); xn = mol fraction of the nth substance listed; conditions: 298.15 K, 101 kPa, Liquid, Standard Abbe refractometry

`CC1OC(C)OC(C)O1` (stereo not drawn) [2,4,6-trimethyl-1,3,5-trioxane] + CCOC(=O)OCC gave a viscosity ([1]; 288.15 K, x1 = 0.0215) of 0.877 ± 0.012 mPa·s, a viscosity ([1]; 288.15 K, x1 = 0.0425) of 0.885 ± 0.012 mPa·s and a viscosity ([1]; 288.15 K, x1 = 0.0615) of 0.892 ± 0.012 mPa·s. It also gave a viscosity ([1]; 288.15 K, x1 = 0.0816) of 0.899 ± 0.012 mPa·s, a viscosity ([1]; 288.15 K, x1 = 0.1036) of 0.906 ± 0.012 mPa·s and a viscosity ([1]; 288.15 K, x1 = 0.1911) of 0.931 ± 0.012 mPa·s. For the same molecule, the viscosity ([1]; 288.15 K, x1 = 0.317) was 0.959 ± 0.013 mPa·s, the viscosity ([1]; 288.15 K, x1 = 0.4272) was 0.985 ± 0.013 mPa·s and the viscosity ([1]; 288.15 K, x1 = 0.5162) was 1.011 ± 0.013 mPa·s. For the same molecule, the viscosity ([1]; 288.15 K, x1 = 0.608) was 1.047 ± 0.014 mPa·s, the viscosity ([1]; 288.15 K, x1 = 0.7032) was 1.098 ± 0.014 mPa·s and the viscosity ([1]; 288.15 K, x1 = 0.7984) was 1.167 ± 0.015 mPa·s. It also gave a viscosity ([1]; 288.15 K, x1 = 0.8957) of 1.26 ± 0.017 mPa·s, a viscosity ([1]; 288.15 K, x1 = 1) of 1.374 ± 0.018 mPa·s and a speed of sound ([1]; 288.15 K, x1 = 0.0215) of 1224 ± 2.7 m/s. For the same molecule, the speed of sound ([1]; 288.15 K, x1 = 0.0425) was 1222.6 ± 2.7 m/s, the speed of sound ([1]; 288.15 K, x1 = 0.0615) was 1221.4 ± 2.7 m/s and the speed of sound ([1]; 288.15 K, x1 = 0.0816) was 1220.3 ± 2.7 m/s. For the same molecule, the speed of sound ([1]; 288.15 K, x1 = 0.1036) was 1219.1 ± 2.7 m/s, the speed of sound ([1]; 288.15 K, x1 = 0.1911) was 1215.7 ± 2.7 m/s and the speed of sound ([1]; 288.15 K, x1 = 0.317) was 1213.4 ± 2.7 m/s. For the same molecule, the speed of sound ([1]; 288.15 K, x1 = 0.4272) was 1213.2 ± 2.7 m/s, the speed of sound ([1]; 288.15 K, x1 = 0.5162) was 1213.8 ± 2.7 m/s and the speed of sound ([1]; 288.15 K, x1 = 0.608) was 1214.8 ± 2.7 m/s. It also gave a speed of sound ([1]; 288.15 K, x1 = 0.7032) of 1215.7 ± 2.7 m/s, a speed of sound ([1]; 288.15 K, x1 = 0.7984) of 1216.2 ± 2.7 m/s and a speed of sound ([1]; 288.15 K, x1 = 0.8957) of 1216.7 ± 2.7 m/s. For the same molecule, the speed of sound ([1]; 288.15 K, x1 = 1) was 1217.7 ± 2.7 m/s, the mass density ([1]; 288.15 K, x1 = 0.0215) was 980.99 ± 1.3 kg/m3 and the mass density ([1]; 288.15 K, x1 = 0.0425) was 981.54 ± 1.3 kg/m3. For the same molecule, the mass density ([1]; 288.15 K, x1 = 0.0615) was 982.03 ± 1.3 kg/m3, the mass density ([1]; 288.15 K, x1 = 0.0816) was 982.54 ± 1.3 kg/m3 and the mass density ([1]; 288.15 K, x1 = 0.1036) was 983.08 ± 1.3 kg/m3. The mass density ([1]; 288.15 K, x1 = 0.1911) was 985.12 ± 1.4 kg/m3, the mass density ([1]; 288.15 K, x1 = 0.317) was 987.74 ± 1.4 kg/m3 and the mass density ([1]; 288.15 K, x1 = 0.4272) was 989.8 ± 1.4 kg/m3. The mass density ([1]; 288.15 K, x1 = 0.5162) was 991.35 ± 1.4 kg/m3, the mass density ([1]; 288.15 K, x1 = 0.608) was 992.87 ± 1.4 kg/m3 and the mass density ([1]; 288.15 K, x1 = 0.7032) was 994.41 ± 1.3 kg/m3. It also gave a mass density ([1]; 288.15 K, x1 = 0.7984) of 995.94 ± 1.3 kg/m3, a mass density ([1]; 288.15 K, x1 = 0.8957) of 997.54 ± 1.4 kg/m3 and a mass density ([1]; 288.15 K, x1 = 1) of 999.69 ± 1.3 kg/m3. The viscosity ([1]; 298.15 K, x1 = 0.0215) was 0.756 ± 0.01 mPa·s, the viscosity ([1]; 298.15 K, x1 = 0.0425) was 0.763 ± 0.01 mPa·s and the viscosity ([1]; 298.15 K, x1 = 0.0615) was 0.768 ± 0.01 mPa·s. The viscosity ([1]; 298.15 K, x1 = 0.0816) was 0.774 ± 0.01 mPa·s, the viscosity ([1]; 298.15 K, x1 = 0.1036) was 0.779 ± 0.01 mPa·s and the viscosity ([1]; 298.15 K, x1 = 0.1911) was 0.798 ± 0.011 mPa·s. It also gave a viscosity ([1]; 298.15 K, x1 = 0.317) of 0.819 ± 0.011 mPa·s, a viscosity ([1]; 298.15 K, x1 = 0.4272) of 0.836 ± 0.011 mPa·s and a viscosity ([1]; 298.15 K, x1 = 0.5162) of 0.854 ± 0.011 mPa·s. For the same molecule, the viscosity ([1]; 298.15 K, x1 = 0.608) was 0.878 ± 0.012 mPa·s, the viscosity ([1]; 298.15 K, x1 = 0.7032) was 0.913 ± 0.012 mPa·s and the viscosity ([1]; 298.15 K, x1 = 0.7984) was 0.962 ± 0.013 mPa·s. It also gave a viscosity ([1]; 298.15 K, x1 = 0.8957) of 1.028 ± 0.014 mPa·s, a viscosity ([1]; 298.15 K, x1 = 1) of 1.107 ± 0.015 mPa·s and a speed of sound ([1]; 298.15 K, x1 = 0.0215) of 1173.8 ± 2.7 m/s. The speed of sound ([1]; 298.15 K, x1 = 0.0425) was 1174.2 ± 2.7 m/s, the speed of sound ([1]; 298.15 K, x1 = 0.0615) was 1174.5 ± 2.7 m/s and the speed of sound ([1]; 298.15 K, x1 = 0.0816) was 1174.8 ± 2.6 m/s. The speed of sound ([1]; 298.15 K, x1 = 0.1036) was 1175 ± 2.6 m/s, the speed of sound ([1]; 298.15 K, x1 = 0.1911) was 1175.6 ± 2.6 m/s and the speed of sound ([1]; 298.15 K, x1 = 0.317) was 1175.3 ± 2.6 m/s. For the same molecule, the speed of sound ([1]; 298.15 K, x1 = 0.4272) was 1174.4 ± 2.6 m/s, the speed of sound ([1]; 298.15 K, x1 = 0.5162) was 1173.5 ± 2.6 m/s and the speed of sound ([1]; 298.15 K, x1 = 0.608) was 1172.6 ± 2.6 m/s. The speed of sound ([1]; 298.15 K, x1 = 0.7032) was 1171.9 ± 2.6 m/s, the speed of sound ([1]; 298.15 K, x1 = 0.7984) was 1171.5 ± 2.6 m/s and the speed of sound ([1]; 298.15 K, x1 = 0.8957) was 1171.8 ± 2.6 m/s. The speed of sound ([1]; 298.15 K, x1 = 1) was 1174.5 ± 2.6 m/s, the mass density ([1]; 298.15 K, x1 = 0.0215) was 969.57 ± 1.3 kg/m3 and the mass density ([1]; 298.15 K, x1 = 0.0425) was 969.99 ± 1.3 kg/m3. For the same molecule, the mass density ([1]; 298.15 K, x1 = 0.0615) was 970.36 ± 1.3 kg/m3, the mass density ([1]; 298.15 K, x1 = 0.0816) was 970.76 ± 1.3 kg/m3 and the mass density ([1]; 298.15 K, x1 = 0.1036) was 971.19 ± 1.3 kg/m3. It also gave a mass density ([1]; 298.15 K, x1 = 0.1911) of 972.92 ± 1.4 kg/m3, a mass density ([1]; 298.15 K, x1 = 0.317) of 975.41 ± 1.4 kg/m3 and a mass density ([1]; 298.15 K, x1 = 0.4272) of 977.57 ± 1.4 kg/m3. It also gave a mass density ([1]; 298.15 K, x1 = 0.5162) of 979.28 ± 1.4 kg/m3, a mass density ([1]; 298.15 K, x1 = 0.608) of 981 ± 1.3 kg/m3 and a mass density ([1]; 298.15 K, x1 = 0.7032) of 982.74 ± 1.3 kg/m3. For the same molecule, the mass density ([1]; 298.15 K, x1 = 0.7984) was 984.41 ± 1.3 kg/m3, the mass density ([1]; 298.15 K, x1 = 0.8957) was 986.04 ± 1.3 kg/m3 and the mass density ([1]; 298.15 K, x1 = 1) was 988.35 ± 1.3 kg/m3. The refractive index ([2]; x1 = 0.0215) was 1.3835 ± 0.0008, the refractive index ([2]; x1 = 0.0425) was 1.384 ± 0.0008 and the refractive index ([2]; x1 = 0.0615) was 1.3844 ± 0.0008. The refractive index ([2]; x1 = 0.0816) was 1.3848 ± 0.0008, the refractive index ([2]; x1 = 0.1036) was 1.3853 ± 0.0008 and the refractive index ([2]; x1 = 0.1911) was 1.3873 ± 0.0008. The refractive index ([2]; x1 = 0.317) was 1.3901 ± 0.0008, the refractive index ([2]; x1 = 0.4272) was 1.3926 ± 0.0008 and the refractive index ([2]; x1 = 0.5162) was 1.3945 ± 0.0008. It also gave a refractive index ([2]; x1 = 0.608) of 1.3963 ± 0.0008, a refractive index ([2]; x1 = 0.7032) of 1.3982 ± 0.0008 and a refractive index ([2]; x1 = 0.7984) of 1.3999 ± 0.0008. The refractive index ([2]; x1 = 0.8957) was 1.4015 ± 0.0008 and the refractive index ([2]; x1 = 1) was 1.4029 ± 0.0008.
